# Data taken from patent publication US20230386637A1, “Polymorphisms for Predicting Treatment Response to Antipsychotic Drugs and Identifying New Drug Targets” (Northwestern University, priority 2018, published 2023).
# Tests used:
# [1] = system: mouse prefrontal cortex; conditions: subeffective dose of SB269970 with subeffective dose of lurasidone; awake freely moving mice; cited from earlier work
# [2] = system: acutely psychotic SCZ patients; experiment: PEARL 1, 2 and PEARL 3 six-week placebo-controlled lurasidone trials, GWAS subjects of the meta-analysis; format: in vivo, human
# Text: Participants. The three clinical trials (Loebel et al., 2013a; Meltzer et al., 2011a; Nasrallah et al., 2013) used in this analysis were six-week, randomized, double-blind, placebo-controlled, multicenter registration trials, of DSM-IV acutely psychotic SCZ patients. The primary measure of efficacy, ΔPANSS-TOT, was the difference between baseline and last observation carried forward (LOCF) for those with at least one PANSS rating at, or after two weeks of treatment, (ΔPANSS-TOTLOCF6WK=PANSSTOTLOCF6WK-PANSS-TOTBaseline). The overall mean percentage of patients who achieved a priori determined response: ≥20% improvement in ΔPANSS-TOTLOCF6WK, was 61% in the PEARL 1, 2 and 3 studies. A total of 587 subjects with valid treatment response data and verified race from two ethnic populations, EUR and AFR, gave written informed consent to participate in genetics study (368 of 545 (67.5% with EUR ancestry and 219 of 403 (54.3% with AFR ancestry). These trials included a small number of patients randomized to treatment with olanzapine (PEARL 1) or quetiapine (PEARL 3). There were too few subjects with genetic data to include them as a separate group in this analysis.
# PEARL 3 was considered an independent dataset due to a significant difference in PANSS-TOTBaseline, inclusion of a higher dose of lurasidone (160 mg/d), and an unequal variance, compared to PEARL 1/2, in ΔPANSS-TOTLOCF6WK by Leven test (Table 1). Samples from the corresponding placebo groups of all three trials were pooled together due to a relatively small sample size per trial and absence of significant differences in demographic and clinical data. Thus, three groups (PEARL 1+2, PEARL 3 and Placebo) per ethnicity were independently examined for quality control (QC), PCA for genetic architectures, and GWAS analyses before determining summary statistics at the individual SNP level. Both Kolmogorov-Smimov and Shapiro-Wilk tests indicated ΔPANSS-TOTLOCF6WK followed a normal distribution with skewness and kurtosis indices between −1 and +1. Therefore, no subjects were excluded from the analysis.
# [3] = system: acutely psychotic SCZ patients; experiment: Pearl 1 and Pearl 2 six-week randomized placebo-controlled lurasidone trials, GWAS sample; format: in vivo, human
# Method: The clinical trials, subjects, and genotyping. The two clinical trials used for this analysis are both six-week, randomized, double-blind, lurasidone, placebo-controlled, multicenter registration trials, of DSM-IV acutely psychotic SCZ patients (Meltzer et al., 2011b; Nasrallah et al., 2013b). Patients who met TRS criteria were excluded. There were four fixed-dose treatment arms: lurasidone 40 and 120 mg/day, another atypical APD, olanzapine, 15 mg/day, and placebo (Pearl 1) (Meltzer et al., 2011b) and lurasidone 40, 80, and 120 mg/day, and placebo (Pearl 2) (Nasrallah et al., 2013b). The percentages of patients who achieved the a priori determined response: >20% improvement in ΔPANSS-T, was 61% in both the Pearl 1 and 2 studies. A total of 171/63 Caucasian and 131/54 AA for lurasidone/placebo-treated patients consented to participate in the genetic study. Ethnicity was validated as described below.
# Evaluation of treatment response. The primary measure of efficacy, ΔPANSS-Total, was the difference between baseline and last observation carried forward (LOCF) for those with at least one PANSS rating after baseline. Results could be pooled across drug dosage arms because clinical change was not dose related (data not presented). The intention-to-treat (ITT) population included 157, 73, and 156 patients who received 40, 80, and 120 mg/day doses of lurasidone, respectively. Subjects within the 30th percentiles for greatest or least improvement in PANSS-Total (referred to as best and worst responders, hereafter) were included in a secondary analysis as previously done for iloperidone (Lavedan et al., 2009).
# Population stratification. […] Population stratification and separation was employed throughout the following analyses. This process yielded 234 Caucasians, 171 and 63 in the lurasidone- and placebo-treated groups, respectively. There were […], 131 and 54 in the lurasidone- and placebo groups, respectively. Adjustment using the top three PCs within each ethnic group was applied to the association tests. The QQ plots indicated no marked deviations of the observed distributions from the expected null distributions with genome inflation factor=1.00 for both ethnic groups (FIG. 1c, d). Both Kolmogorov-Smimov and Shapiro-Wilk tests indicated ΔPANSS-T followed the normal distribution with skewness and kurtosis indices between-1 and +1. Therefore, no subjects had to be excluded from the analysis.
# [4] = in vivo; cited from earlier work
# [5] = African ancestry, Pearl 1, 2, n=124
# [6] = African ancestry, Pearl 3, n=34
# [7] = European ancestry, Pearl 1, 2, n=165
# [8] = European ancestry, Pearl 3, n=99
smiles,measurement,setting,value
CC1CCN(CC[C@H]2CCCN2S(=O)(=O)c2cccc(O)c2)CC1 [SB269970],effect on lurasidone-induced dopamine efflux,[1],potentiated
O=C1[C@@H]2[C@H]3CC[C@H](C3)[C@@H]2C(=O)N1C[C@@H]1CCCC[C@H]1CN1CCN(c2nsc3ccccc23)CC1 [lurasidone],% change of Psychopathology PANSE_NEG,[2]; [5],−13.44(22.75) %
same,% change of Psychopathology PANSS_POS,[2]; [5],−25.80(24.91) %
same,% change of Psychopathology PANSS_TOT,[2]; [5],−16.55(17.79) %
same,Δ change of Psychopathology PANSS_NEG,[2]; [5],−3.26(4.82)
same,Δ change of Psychopathology PANSS_POS,[2]; [5],−5.15(4.93)
same,Δ change of Psychopathology PANSS_TOT,"[2]; African ancestry, Pearl 1, 2, n=124, lurasidone 40/80/120 mg/d",−15.88(16.97)
same,% change of Psychopathology PANSE_NEG,[2]; [6],−15.66(22.26) %
same,% change of Psychopathology PANSS_POS,[2]; [6],−30.04(22.51) %
same,% change of Psychopathology PANSS_TOT,[2]; [6],−22.47(19.05) %
same,Δ change of Psychopathology PANSS_NEG,[2]; [6],−3.85(4.88)
same,Δ change of Psychopathology PANSS_POS,[2]; [6],−5.71(4.35)
same,Δ change of Psychopathology PANSS_TOT,"[2]; African ancestry, Pearl 3, n=34, lurasidone 80/160 mg/d",−21.95(18.15)
same,% change of Psychopathology PANSS_NEG,[2]; [7],−13.44(22.75) %
same,% change of Psychopathology PANSS_POS,[2]; [7],−25.80(24.91) %
same,% change of Psychopathology PANSS_TOT,[2]; [7],−16.55(17.79) %
same,Δ change of Psychopathology PANSS_NEG,[2]; [7],−3.26(4.82)
same,Δ change of Psychopathology PANSS_POS,[2]; [7],−5.15(4.93)
same,Δ change of Psychopathology PANSS_TOT,"[2]; European ancestry, Pearl 1, 2, n=165, lurasidone 40/80/120 mg/d",−15.88(16.97)
same,% change of Psychopathology PANSS_NEG,[2]; [8],−15.66(22.26) %
same,% change of Psychopathology PANSS_POS,[2]; [8],−30.04(22.51) %
same,% change of Psychopathology PANSS_TOT,[2]; [8],−22.47(19.05) %
same,Δ change of Psychopathology PANSS_NEG,[2]; [8],−3.85(4.88)
same,Δ change of Psychopathology PANSS_POS,[2]; [8],−5.71(4.35)
same,Δ change of Psychopathology PANSS_TOT,"[2]; European ancestry, Pearl 3, n=99, lurasidone 80/160 mg/d",−21.95(18.15)
same,overall mean percentage of patients who achieved a priori determined response: ≥20% improvement in ΔPANSS-TOTLOCF6WK,"[2]; PEARL 1, 2 and 3 studies",61%
same,PANSS anxiety/depression Change (LOCP),"[3]; African-Americans, n=131",−3.3 ± 4.1
same,PANSS disorganization Change (LOCF),"[3]; African-Americans, n=131",−4.0 ± 4.4
same,PANSS excited Change (LOCF),"[3]; African-Americans, n=131",−1.2 ± 4.0
same,PANSS negative Change (LOCF),"[3]; African-Americans, n=131",−4.2 ± 4.6
same,PANSS positive Change (LOCF),"[3]; African-Americans, n=131",−5.3 ± 4.4
same,PANSS total Change (LOCF),"[3]; African-Americans, n=131",−18.0 ± 16.3
same,PANSS anxiety/depression Change (LOCP),"[3]; Caucasians, n=171",−2.1 ± 4.2
same,PANSS disorganization Change (LOCF),"[3]; Caucasians, n=171",−4.0 ± 4.2
same,PANSS excited Change (LOCF),"[3]; Caucasians, n=171",−1.4 ± 3.7
same,PANSS negative Change (LOCF),"[3]; Caucasians, n=171",−3.3 ± 4.8
same,PANSS positive Change (LOCF),"[3]; Caucasians, n=171",−5.1 ± 4.9
same,PANSS total Change (LOCF),"[3]; Caucasians, n=171",−15.9 ± 17.0
same,CGI Change (LOCF),"[3]; Caucasians, n=171, lurasidone 40/80/120 mg, baseline to LOCF, mean ± SD",−1.0 ± 1.0
same,percentages of patients who achieved the a priori determined response: >20% improvement in ΔPANSS-T,[3]; both the Pearl 1 and 2 studies,61%
same,side effect profile,[4],relatively benign side effect profile
